The nature of data set [1]: Solubilization of single-walled carbon nanotube. The format is physicochemical. The conditions noted are these: in water; estimated from absorbance at 500 nm. As to the method:
Preliminary dispersion was performed by dispersing 1.0 mg of a single-walled carbon nanotube (SWNT) (Carbon Nanotechnology, Inc.) in 0.5 mL of DMSO, and performing ultrasonic irradiation. An amount of 1.0 mL of AQUA β (DAISO Co., Ltd.) in a DMSO solution (2.0 mg/mL) was added and ultrasonic irradiation was further performed for 1 hour. The obtained dispersion was added to 1.5 mL of distilled water. To the dispersion, 35 mL of distilled water was further added and the solution was allowed to stand for one day to renature the AQUA β. It was observed by visual inspection that the solution was uniform at that point. Centrifugation (8,000 rpm, 60 minutes) was performed to recover the complex as a precipitate, the supernatant was removed, and the precipitate was redispersed in distilled water. This procedure was repeated 3 times for removal of uncombined polysaccharides and replacement of the solvent with water. Thus a solution in which the SWNT was dispersed in 5 mL of distilled water was obtained.
From the absorbance at 500 nm (Abs500=0.575), the concentration of the dissolved SWNT is estimated at […]. […] The improvement in the dispersibility seems to be attributed to the fact that AQUA β has a higher proportion of side chains than sizofuran.

A short description of data set [2]: Water solubilization of m-carborane by high speed vibration milling. The data set is classed as physicochemical. As to the method: m-carborane was mixed with AQUA β (DAISO Co., Ltd.) or sizofuran (SPG) (Mitsui Sugar Co., Ltd.) in the predetermined amounts shown in Table 3 below. The mixture was placed with an agate milling ball in an agate milling jar, and high speed milling was performed with a mixer mill (MM200, Retsch Co., Ltd.) at 25 Hz for 25 minutes. Next, 10,000 parts by weight of water was added to 1 part by weight of the mixture, and the mixture was stirred with a magnetic stirrer at room temperature for two days and further agitated with a vortex mixer for 2 hours. Centrifugation (25° C., 14,000 rpm, 20 minutes) was performed, and the supernatant was filtrated through a 0.45 μm membrane filter. The boron concentration of the filtrate was measured with an ICP atomic emission spectrometer for evaluation of the degree of water solubility.

The values below come from patent US8907080B2, “Process for imparting water solubility or water dispersibility to hydrophobic cluster compound” (Daiso Co., Ltd., priority 2009, dated 2014).

Take sizofiran: the “Concentration of the dissolved SWNT” value in data set [1] is 2500 µg/mL.
On to β-1,3-1,6-D-glucan [AQUA β], for which the “Boron concentration relative to solution prepared using sizofuran” value in data set [2] is recorded as not below 3 times.
